# Experimental data as given in ChEMBL document CHEMBL1201862, “PubChem BioAssay data set” (2004).
# Active and inactive are the calls of the source.
# Tests used:
# [1] = molecular target: T1, Polyadenylate-binding protein 1 (Homo sapiens, UniProt P11940); test: PABP1 MLLE–PAM2 binding inhibitor potency, dose response, biochemical, fluorescence polarization, FITC-PAM2 peptide (AID 602259); format: functional; conditions: read-out: IC50_Mean
# [2] = molecular target: T1, Polyadenylate-binding protein 1; test: PABP1 MLLE–PAM2 interaction inhibitors, dose response, miRNA deadenylation inhibitor project, biochemical, fluorescence polarization, Cy5-PAM2 peptide, secondary (AID 602260); format: functional; conditions: read-out: IC50_Mean
# [3] = molecular target: T2, RNA-binding protein pos-1 (Caenorhabditis elegans, UniProt G5EF15); test: inhibitors of POS-1/mex-3 RNA binding, dose response, biochemical, fluorescence polarization (AID 1964);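 further: purified POS-1 fused to maltose binding protein made in E. coli; potency of compounds blocking POS-1 binding to fluorescent RNA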
# T2 sequence (G5EF15 whole entry): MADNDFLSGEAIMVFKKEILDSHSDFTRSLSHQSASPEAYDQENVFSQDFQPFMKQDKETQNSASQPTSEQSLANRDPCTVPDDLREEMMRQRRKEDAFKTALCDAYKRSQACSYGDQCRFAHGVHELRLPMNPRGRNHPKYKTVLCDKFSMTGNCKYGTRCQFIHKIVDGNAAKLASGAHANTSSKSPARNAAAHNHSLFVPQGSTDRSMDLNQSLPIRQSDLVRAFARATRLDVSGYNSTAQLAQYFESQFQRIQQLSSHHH
# [4] = molecular target: T3, Zinc finger protein mex-5 (Caenorhabditis elegans, UniProt Q9XUB2); test: MEX-5/TCR-2 RNA interaction inhibitors, dose response, biochemical, C. elegans, fluorescence polarization (AID 1960)
# T3 sequence (Q9XUB2 whole entry): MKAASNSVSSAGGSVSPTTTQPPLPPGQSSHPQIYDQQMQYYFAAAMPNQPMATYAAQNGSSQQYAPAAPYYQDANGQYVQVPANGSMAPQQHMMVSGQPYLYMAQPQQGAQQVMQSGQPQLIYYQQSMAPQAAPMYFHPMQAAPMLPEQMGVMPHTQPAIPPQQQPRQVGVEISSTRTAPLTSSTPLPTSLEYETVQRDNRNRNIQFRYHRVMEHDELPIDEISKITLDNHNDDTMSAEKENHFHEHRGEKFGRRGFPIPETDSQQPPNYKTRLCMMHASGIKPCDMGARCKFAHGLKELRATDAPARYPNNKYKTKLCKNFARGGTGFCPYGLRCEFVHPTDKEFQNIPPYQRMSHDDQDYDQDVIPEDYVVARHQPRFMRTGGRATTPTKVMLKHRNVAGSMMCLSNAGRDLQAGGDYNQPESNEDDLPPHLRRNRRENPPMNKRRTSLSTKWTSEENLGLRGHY
# [5] = inhibitors of firefly luciferase expression or activity, dose response, H4 neuroglioma cells, luminescence (AID 1990); format: functional, cell-based
# [6] = molecular target: Nonstructural protein 1 (Influenza A virus, UniProt Q194T2); format: functional, Influenza A virus (A/California/07/2009(H1N1))
# Chain of Nonstructural protein 1 (Q194T2 whole entry): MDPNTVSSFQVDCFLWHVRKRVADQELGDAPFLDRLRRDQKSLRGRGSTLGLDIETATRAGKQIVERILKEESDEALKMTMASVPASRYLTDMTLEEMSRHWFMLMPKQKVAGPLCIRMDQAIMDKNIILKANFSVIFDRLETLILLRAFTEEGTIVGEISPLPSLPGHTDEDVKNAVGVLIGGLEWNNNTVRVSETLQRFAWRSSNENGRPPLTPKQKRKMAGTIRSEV
# [7] = test system: INS1; test: beta cell apoptosis inhibitors, cytokine rescue, dose response, luminescence, retest (AID 449756); format: functional, cell-based; conditions: Rattus norvegicus;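 further: cell death triggered by IL-1 beta plus TNF-alpha plus IFN-gamma mixture; protective hits raise ATP signal compared with cytokine alone wells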
# [8] = inhibitors of SNCA 5'UTR-driven reporter translation, confirmation, H4 neuroglioma cells, luminescence (AID 1988); format: functional, cell-based
# [9] = Luminescence Cell-Based Dose Response HTS to Identify Inhibitors of 5'UTR Stem-Loop Driven Prion Protein mRNA Translation in H4 Neuroglioblastoma Cells. [Related pubchem assays: 1827 (Project Summary), 1813 (Primary HTS)]; format: functional
# [10] = molecular target: FAD-linked sulfhydryl oxidase ALR (Homo sapiens, UniProt P55789); test: inhibitors of human ALR sulfhydryl oxidase, dose response, biochemical, H2O2 detection, luminescence, cherry-pick (AID 493248)
# Chain of FAD-linked sulfhydryl oxidase ALR (P55789 whole entry): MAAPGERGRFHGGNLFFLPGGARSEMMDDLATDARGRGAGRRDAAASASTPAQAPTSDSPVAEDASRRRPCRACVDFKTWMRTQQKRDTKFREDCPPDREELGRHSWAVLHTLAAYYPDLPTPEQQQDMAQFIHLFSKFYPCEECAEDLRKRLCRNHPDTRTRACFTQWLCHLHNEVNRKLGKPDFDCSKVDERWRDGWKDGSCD
# [11] = Luminescence Cell-Based Dose Retest to Confirm Inhibitors of Cancer Stem Cells. [Related pubchem assays (depositor defined):AID2717, AID2721]; format: functional; conditions: Homo sapiens
# [12] = molecular target: T4, Carboxy-terminal domain RNA polymerase II polypeptide A small phosphatase 1 (Homo sapiens, UniProt Q9GZU7); test: inhibitors of CTDSP1, concentration-response testing, biochemical assay, absorbance-based, actives from ultra-high-throughput screening (AID 540297); format: functional
# T4 sequence (Q9GZU7 whole entry): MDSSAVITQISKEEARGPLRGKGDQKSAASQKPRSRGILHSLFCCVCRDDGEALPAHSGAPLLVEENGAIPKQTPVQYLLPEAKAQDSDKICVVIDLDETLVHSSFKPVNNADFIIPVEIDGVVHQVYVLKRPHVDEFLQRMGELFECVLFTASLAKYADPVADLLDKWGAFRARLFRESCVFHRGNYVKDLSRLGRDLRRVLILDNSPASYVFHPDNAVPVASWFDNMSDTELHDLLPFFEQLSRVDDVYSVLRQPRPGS
# [13] = cells; format: functional
# [14] = molecular target: Cytochrome P450 3A4 (Homo sapiens, UniProt P08684);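 further: CYP3A4 tested as one member of a cytochrome P450 panel screen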
# Chain of Cytochrome P450 3A4 (P08684 whole entry): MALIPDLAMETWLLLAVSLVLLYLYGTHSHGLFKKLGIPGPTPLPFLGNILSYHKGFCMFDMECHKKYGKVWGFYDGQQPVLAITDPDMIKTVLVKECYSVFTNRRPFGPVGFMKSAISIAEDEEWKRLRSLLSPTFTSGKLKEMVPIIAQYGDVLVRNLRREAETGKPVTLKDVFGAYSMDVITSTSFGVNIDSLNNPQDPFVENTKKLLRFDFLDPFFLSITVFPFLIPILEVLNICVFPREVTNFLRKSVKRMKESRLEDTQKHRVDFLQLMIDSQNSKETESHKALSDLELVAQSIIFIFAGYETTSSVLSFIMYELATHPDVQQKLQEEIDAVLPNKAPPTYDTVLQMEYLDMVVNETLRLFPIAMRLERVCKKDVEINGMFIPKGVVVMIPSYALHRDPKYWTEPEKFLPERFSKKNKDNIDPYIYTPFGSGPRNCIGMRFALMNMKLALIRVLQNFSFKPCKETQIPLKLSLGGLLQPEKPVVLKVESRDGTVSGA
# [15] = molecular target: Cytochrome P450 2C9 (Homo sapiens, UniProt P11712)
# Chain of Cytochrome P450 2C9 (P11712 whole entry): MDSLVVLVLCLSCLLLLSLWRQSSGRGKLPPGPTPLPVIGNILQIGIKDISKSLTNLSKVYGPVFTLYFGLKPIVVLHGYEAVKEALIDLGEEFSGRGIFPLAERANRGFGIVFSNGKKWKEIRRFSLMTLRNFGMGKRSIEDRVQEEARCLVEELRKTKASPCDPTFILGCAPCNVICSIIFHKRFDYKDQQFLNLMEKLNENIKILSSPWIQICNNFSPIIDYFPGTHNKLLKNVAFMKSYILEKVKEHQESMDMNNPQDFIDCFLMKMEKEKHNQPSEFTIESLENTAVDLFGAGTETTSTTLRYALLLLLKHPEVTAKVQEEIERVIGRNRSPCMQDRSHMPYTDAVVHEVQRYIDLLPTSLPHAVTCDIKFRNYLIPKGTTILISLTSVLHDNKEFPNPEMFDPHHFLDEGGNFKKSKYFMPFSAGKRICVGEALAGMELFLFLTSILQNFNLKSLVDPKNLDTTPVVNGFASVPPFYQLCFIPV
# [16] = molecular target: Cytochrome P450 2D6 (Homo sapiens, UniProt P10635);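 further: CYP2D6 member of a cytochrome P450 panel assay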
# Chain of Cytochrome P450 2D6 (P10635 whole entry): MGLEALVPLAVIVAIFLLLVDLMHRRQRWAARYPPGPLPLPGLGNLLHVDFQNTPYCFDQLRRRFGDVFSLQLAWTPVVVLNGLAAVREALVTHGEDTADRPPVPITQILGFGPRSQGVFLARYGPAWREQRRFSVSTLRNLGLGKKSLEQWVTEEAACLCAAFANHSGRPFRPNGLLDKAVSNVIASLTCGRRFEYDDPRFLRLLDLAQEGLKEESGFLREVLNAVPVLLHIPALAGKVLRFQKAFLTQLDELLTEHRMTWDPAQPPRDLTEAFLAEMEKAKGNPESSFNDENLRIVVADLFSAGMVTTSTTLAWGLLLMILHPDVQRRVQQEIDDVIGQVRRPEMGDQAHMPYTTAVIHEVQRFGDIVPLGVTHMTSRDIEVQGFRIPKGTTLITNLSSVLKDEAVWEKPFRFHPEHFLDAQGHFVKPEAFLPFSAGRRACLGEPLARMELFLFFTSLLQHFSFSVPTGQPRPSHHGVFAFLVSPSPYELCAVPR
# [17] = Luminescence Cell-Based Dose Confirmation HTS to Identify Inhibitors of Platelet Dense Granule Release. [Related pubchem assays: 1663 (Primary HTS), 1678 (Summary of Project)]; format: functional
# [18] = molecular target: Luciferin 4-monooxygenase (Photinus pyralis, UniProt P08659); test: firefly luciferase enzyme inhibitors, dose response, biochemical, luminescence (AID 1891)
# Chain of Luciferin 4-monooxygenase (P08659 whole entry): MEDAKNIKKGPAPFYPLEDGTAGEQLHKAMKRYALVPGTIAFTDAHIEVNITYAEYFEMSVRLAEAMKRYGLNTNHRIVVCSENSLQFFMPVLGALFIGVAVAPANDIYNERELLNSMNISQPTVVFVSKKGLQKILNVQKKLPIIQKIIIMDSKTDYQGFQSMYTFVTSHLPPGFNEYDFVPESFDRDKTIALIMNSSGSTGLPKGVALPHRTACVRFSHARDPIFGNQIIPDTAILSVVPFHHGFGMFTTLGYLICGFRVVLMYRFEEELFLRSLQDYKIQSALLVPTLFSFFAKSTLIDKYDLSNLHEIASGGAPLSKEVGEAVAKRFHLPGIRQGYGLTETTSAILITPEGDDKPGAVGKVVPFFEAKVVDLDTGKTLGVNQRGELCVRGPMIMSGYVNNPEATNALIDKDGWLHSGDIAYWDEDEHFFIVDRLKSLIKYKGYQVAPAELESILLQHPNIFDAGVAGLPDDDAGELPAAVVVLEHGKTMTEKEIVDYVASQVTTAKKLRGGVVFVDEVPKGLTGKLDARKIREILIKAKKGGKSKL
# [19] = cytotoxicity toward NIH3T3 fibroblasts, dose response, counter-screen, cell-based, ATP luminescence, mouse fibroblasts (AID 2010); format: functional;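 further: cells exposed to compound for about 90 hours before reading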
# [20] = inhibitors of intracellular T. cruzi replication, confirmation, NIH3T3 host cells, beta-gal luminescence (AID 2044); format: functional, cell-based;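 further: intracellular parasites grown in NIH/3T3 mouse fibroblasts as host cells; luminescent beta-galactosidase reporter signal from transgenic T. cruzi replicating inside host cells; inhibitors lower the luminescence signal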
# T1 sequence (P11940 whole entry): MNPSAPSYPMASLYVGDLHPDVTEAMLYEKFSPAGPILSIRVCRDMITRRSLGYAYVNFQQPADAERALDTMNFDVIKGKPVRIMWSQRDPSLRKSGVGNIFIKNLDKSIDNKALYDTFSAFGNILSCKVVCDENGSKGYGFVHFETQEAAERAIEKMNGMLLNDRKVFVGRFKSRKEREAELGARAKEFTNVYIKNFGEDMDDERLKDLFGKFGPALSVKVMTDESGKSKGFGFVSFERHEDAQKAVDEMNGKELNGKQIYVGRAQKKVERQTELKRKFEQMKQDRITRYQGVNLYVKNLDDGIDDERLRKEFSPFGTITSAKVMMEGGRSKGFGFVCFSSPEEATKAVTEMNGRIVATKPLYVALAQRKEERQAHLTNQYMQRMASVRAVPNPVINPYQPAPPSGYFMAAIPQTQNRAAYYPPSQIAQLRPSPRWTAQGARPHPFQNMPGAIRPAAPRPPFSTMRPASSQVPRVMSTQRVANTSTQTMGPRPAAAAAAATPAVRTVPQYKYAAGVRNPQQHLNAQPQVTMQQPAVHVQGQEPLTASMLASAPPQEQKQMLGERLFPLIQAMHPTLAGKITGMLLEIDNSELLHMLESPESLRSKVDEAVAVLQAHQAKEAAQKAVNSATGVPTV
structure (smiles),measurement,setting,value
CCCCN=C(S)Nc1ccc(OC)nc1,IC50,[1],43.7 µM (inactive)
same,IC50,[2],> 66 µM (inactive)
COc1ccc(OC)c(C(=O)c2coc3ccc(O)c(CN4CCOCC4)c23)c1,EC50,[3],> 300 µM (not active)
same,EC50,[4],> 300 µM (not active)
Cc1nc(C(F)(F)F)c(C(=O)NN=C(N)c2ccccn2)s1,EC50,[5],11.5 µM (active)
same,IC50,[6],8.03 µM (active)
same,AC50,[7],5.45 µM (active)
same,EC50,[8],> 120 µM (not active)
same,EC50,[9],> 120 µM (not active)
CCc1c(O)n(-c2ccccc2C)c(SCC(=O)Nc2ccccc2OC)nc1=O,IC50,[1],> 66 µM (inactive)
same,IC50,[2],> 66 µM (inactive)
NNc1nc2ccc(F)cc2s1,AC50,[10],4.94 µM (active)
Nc1nn(-c2ccccc2)c(N)c1N=Nc1ccccc1F,IC50,[6],> 100 µM (active)
O=C(CN1CCN(c2ccc(Cl)cc2)CC1)N1CCCC1,AC50,[10],0.657 µM (active)
Cc1ccc2[nH]c(C(=O)O)c(-c3ccccc3)c2c1,AC50,[10],4.49 µM (active)
CCCC(=O)NC(=S)Nc1cccc(Cl)c1N1CCCC1,AC50,[11],4.17 µM (active)
same,IC50,[1],> 66 µM (inactive)
same,IC50,[2],> 66 µM (inactive)
CCOC(=O)c1nc(Nc2ccc(N3CCC(C)CC3)cc2)c2ccccc2n1,IC50,[6],26.9 µM (active)
COC(=O)c1c(NC(=O)C2C3CCC(C3)C2C(=O)O)sc2c1CCCCC2 (centres undefined),IC50,[1],> 66 µM (inactive)
same,IC50,[2],> 66 µM (inactive)
COc1cccc(/C=N/NC(=O)c2ccc(O)nn2)c1O,EC50,[3],31.7 µM (active)
O=C(CSc1nnc(CNC(=O)c2c(F)cccc2F)o1)NCc1ccco1,IC50,[12],14 µM (active)
CCSc1ncc(/C=N/Nc2ccc(Cl)cc2)n1C,AC50,[11],3.3 µM (active)
same,IC50,[13],> 50 µM (active)
O=C(COc1ccc(-n2cnnn2)cc1)Nc1ccccc1Cl,IC50,[12],11.4 µM (active)
CO/N=C/CC(=O)c1ccc(OC)cc1,IC50,[13],22.9 µM (active)
N#Cc1nc(-c2cccs2)oc1NCCc1ccccc1,IC50,[13],7.45 µM (active)
O=C(OCc1ccccn1)c1ccc(COc2ccccc2Cl)o1,AC50,[14],31.6 µM (inconclusive)
same,AC50,[15],39.8 µM (inconclusive)
same,IC50,[13],35.1 µM (active)
same,AC50,[16],17.8 µM (inconclusive)
COc1ccc(C(=O)NCC(c2cccnc2)N2CCN(c3ccc(F)cc3)CC2)cc1OC (centres undefined),AC50,[10],< 0.005 µM (active)
CCCCC1=CC2=CC(=O)C(C)(OC(=O)c3ccc(Cl)nc3)C(=O)C2=CO1 (centres undefined),EC50,[3],21.7 µM (active)
same,EC50,[4],21.6 µM (active)
Cn1c(=O)c(-c2cc(O)[nH]n2)c(O)c2ccccc21,EC50,[3],> 300 µM (not active)
same,EC50,[4],23.3 µM (active)
Cc1onc(-c2c(Cl)cccc2Cl)c1C(=O)N1CCc2ccccc2C1,EC50,[17],> 112 µM (not active)
same,AC50,[16],22.4 µM (inconclusive)
same,EC50,[18],> 112 µM (not active)
O=C1NC(c2ccccn2)Nc2sc3c(c21)CCC3 (centres undefined),IC50,[6],54.2 µM (active)
COc1ccc(N2CCN(C(=O)CCNS(=O)(=O)c3ccccc3)CC2)cc1,AC50,[10],8.08 µM (active)
O=C(NCc1ccncc1)/C(=C/c1cccc([N+](=O)[O-])c1)NC(=O)c1ccccc1,EC50,[17],> 112 µM (not active)
same,EC50,[18],> 112 µM (not active)
O=S(=O)(NCCc1csc(-c2cccnc2)n1)c1ccc2c(c1)OCCO2,EC50,[5],> 120 µM (not active)
same,EC50,[17],> 112 µM (not active)
same,EC50,[8],> 120 µM (not active)
same,EC50,[9],16.4 µM (active)
same,EC50,[18],> 112 µM (not active)
CN(CC(=O)Nc1cccc2ccccc12)C(=O)c1ccc(NC(=O)CC#N)cc1,AC50,[10],6.29 µM (active)
c1ccc(-c2cn(C[C@H]3CC[C@H](Cn4cc(-c5ccccn5)nn4)O3)nn2)nc1,IC50,[6],3.19 µM (active)
O=c1c2ccccc2nc(/C=C/c2ccc(F)cc2)n1-c1ccccn1,EC50,[17],> 112 µM (not active)
same,EC50,[18],> 112 µM (not active)
O=C(COC(=O)c1cc(-c2cccs2)nc2ccccc12)NCc1ccco1,IC50,[12],9.73 µM (active)
Cc1ccc(NC(=O)Nc2cccc(Cl)c2)c(C(=O)O)c1,EC50,[17],> 112 µM (not active)
same,EC50,[18],17.2 µM (active)
CC1CCN(C(=O)COC(=O)CCc2c[nH]c3ccccc23)CC1,IC50,[13],2.53 µM (active)
CN1C(=O)C(=Cc2ccc(Sc3ccccc3)o2)C(=O)N(C)C1=S,EC50,[3],> 300 µM (not active)
same,EC50,[4],> 300 µM (not active)
COc1ccc(NC(=O)c2cc(S(=O)(=O)N3CCc4ccccc43)cn2C)cc1,EC50,[17],> 112 µM (not active)
same,EC50,[18],> 112 µM (not active)
CCCCCCN1C(=O)NC(=O)/C(=C\NCCCn2ccnc2)C1=O,EC50,[3],> 300 µM (not active)
same,EC50,[4],> 300 µM (inconclusive)
COc1ccccc1C(=O)C1CCCN(C(=O)c2cccnc2SC)C1 (centres undefined),EC50,[3],> 300 µM (not active)
same,EC50,[4],> 300 µM (not active)
CC(C)c1nnc(NC(=O)CS(=O)(=O)Cc2ccccc2)s1,IC50,[1],> 66 µM (inactive)
same,IC50,[2],> 66 µM (inactive)
Cc1ccc(C)n1-c1ccc2c(c1)COC2=O,EC50,[3],> 300 µM (not active)
same,EC50,[4],> 300 µM (not active)
Cn1c(=O)[nH]c(=O)c2c1nc(Br)n2CCCSc1nc2ccccc2o1,AC50,[10],< 0.005 µM (active)
same,EC50,[19],15.8 µM (active)
same,EC50,[20],1.32 µM (active)
Cc1cc(NC(=O)CSC2=NCCS2)no1,IC50,[1],> 66 µM (inactive)
same,IC50,[2],> 66 µM (inactive)
Cc1onc(-c2ccccc2Cl)c1C(=O)NCCn1c(C)cc2ccccc21,IC50,[6],> 100 µM (active)
COc1ccc(NS(=O)(=O)c2ccc(NC(=S)NC(=O)c3cccc(F)c3)cc2)nn1,IC50,[1],> 66 µM (inactive)
same,IC50,[2],> 66 µM (inactive)
Cc1cc(C(=O)N/N=C/c2cccc([N+](=O)[O-])c2O)[nH]n1,IC50,[6],7.33 µM (active)
O=C(O)C1CCCN1c1nc(Cl)ccc1[N+](=O)[O-] (centres undefined),IC50,[1],> 66 µM (inactive)
same,IC50,[2],> 66 µM (inactive)
Cc1nc2sccn2c(=O)c1S(=O)(=O)N1CCN(c2ccc(F)cc2)CC1,EC50,[17],> 112 µM (not active)
same,EC50,[18],> 112 µM (not active)
O=C(CN1C(=O)N/C(=C\c2ccccc2OCc2ccc(C(=O)O)cc2)C1=O)Nc1ccc(F)cc1,IC50,[12],9.09 µM (active)
CC(C)[N+](C)(CCC(C(N)=O)(c1ccccc1)c1ccccc1)C(C)C [ISOPROPAMIDE IODIDE],IC50,[12],3.27 µM (active)
